Experimental data: US20110065916A1, “METHOD OF MAKING IMIDAZOAZEPINONE COMPOUNDS” (priority 2007, published 2011)

These compounds were tested on human T-bet (assay: HEKT-bet-luc assay (normalized HEKT-bet IC50)). Details: Homo sapiens, HEK293, 24 h, Table 4, engineered HEK cells, compound 24 hours, normalized to reference ER-819544.
Format: cell-based
Experimental: HEKT-bet-luc assay: This assay measures a T-bet dependent reporter (luciferase) activity in engineered HEK cells that express a human T-bet and a T-box responsive element driving luciferase reporter. HEKT-bet cells were plated at 2×10^4/well in 96-well plate and compound was added into cell culture for 24 hours. Luciferase activity was measured by adding 50 μl of Steady-Glo reagent (Promega) and samples were read in Victor V reader (PerkinElmer). The activity of compound was determined by comparing compound treated samples to non-compound treated vehicle controls. The IC50 values were calculated utilizing a maximum value corresponding to the amount of luciferase in the absence of a test compound and a minimum value corresponding to a test compound value obtained at maximum inhibition.
Determination of Normalized HEKT-bet IC50 values: Compounds were assayed in microtiter plates. Each plate included a reference compound which was ER-819544. The un-normalized IC50 value for a particular compound was divided by the IC50 value determined for the reference compound in the same microtiter plate to provide a relative potency value. The relative potency value was then multiplied by the established potency of the reference compound to provide the normalized HEKT-bet IC50 value. […] The IC50 values provided herein were obtained using this normalization method.

Row | Compound | IC50
1 | CCN1C(=O)N2Cc3cc(OC)cc(OC)c3[C@H](C)C=C2C12CCN(Cc1c(F)ccc(C)c1F)CC2 [ER-819946] | 2970 nM
2 | CCN1C(=O)N2Cc3cc(OC)cc(OC)c3[C@@H](C)C=C2C12CCN(Cc1ccnn1C)CC2 [ER-819958-01] | 79 nM
3 | COc1cc2c(c(OC)c1)[C@@H](C)C=C1N(C2)C(=O)N(CCO)C12CCN(Cc1cc(C)cc(C)c1)CC2 (single isomer, unassigned) [ER-819786] | 30 nM
4 | CCN1C(=O)N2Cc3cc(OC)cc(OC)c3[C@@H](C)C=C2C12CCN(Cc1cccc(-n3cncn3)c1)CC2 [ER-811302-01] | 250 nM
5 | CCN1C(=O)N2Cc3cc(OC)cc(OC)c3[C@@H](C)C=C2C12CCN(Cc1sncc1C)CC2 [ER-819842-01] | 81 nM
6 | CCN1C(=O)N2Cc3cc(OC)cc(OC)c3[C@@H](C)C=C2C12CCN(Cc1cccn1CCC#N)CC2 [ER-820008-00] | 240 nM
7 | CCN1C(=O)N2Cc3cc(OC)cc(OC)c3[C@@H](C)C=C2C12CCN(Cc1cccn1C(C)C)CC2 [ER-811358-01] | 220 nM
8 | CCN1C(=O)N2Cc3cc(OC)cc(OC)c3[C@@H](C)C=C2C12CCN(Cc1cccc3c1OCCO3)CC2 [ER-811291-01] | 120 nM
9 | CCN1C(=O)N2Cc3cc(OC)cc(OC)c3[C@H](C)C=C2C12CCN(Cc1ccc(F)c(OC(F)(F)F)c1)CC2 [ER-819945] | > 10000 nM
10 | CCN1C(=O)N2Cc3cc(OC)cc(OC)c3[C@@H](C)C=C2C12CCN(Cc1nc(C)oc1C)CC2 [ER-811283-01] | 53 nM
11 | CCN1C(=O)N2Cc3cc(OC)cc(OC)c3[C@@H](C)C=C2C12CCN(Cc1cc(C)ccc1F)CC2 [ER-819935] | 130 nM
12 | CCN1C(=O)N2Cc3cc(OC)cc(OC)c3[C@H](C)C=C2C12CCN(Cc1cc(C)cc(C)c1)CC2 [ER-819763] | 550 nM
13 | CCN1C(=O)N2Cc3cc(OC)cc(OC)c3[C@@H](C)C=C2C12CCN(Cc1cn(C)c3ccccc13)CC2 [ER-819804-01] | 40 nM
14 | CCN1C(=O)N2Cc3cc(OC)cc(OC)c3[C@@H](C)C=C2C12CCN(Cc1cccc3ncccc13)CC2 [ER-819954-01] | 47 nM
15 | CCN1C(=O)N2Cc3cc(OC)cc(OC)c3[C@@H](C)C=C2C12CCN(Cc1cnc3ccccc3c1)CC2 [ER-819837-01] | 56 nM
16 | CCN1C(=O)N2Cc3cc(OC)cc(OC)c3[C@@H](C)C=C2C12CCN(Cc1cccnc1OC)CC2 [ER-819833-01] | 47 nM
17 | CCN1C(=O)N2Cc3cc(OC)cc(OC)c3[C@@H](C)C=C2C12CCN(Cc1cc3ccccc3o1)CC2 [ER-811308-01] | 56 nM
18 | CCN1C(=O)N2Cc3cc(OC)cc(OC)c3[C@@H](C)C=C2C12CCN(Cc1cnoc1C)CC2 [ER-819810-01] | 12 nM
19 | CCN1C(=O)N2Cc3cc(OC)cc(OC)c3[C@@H](C)C=C2C12CCN(Cc1c(F)ccc(C)c1F)CC2 [ER-819934] | 100 nM
20 | COc1cc2c(c(OC)c1)[C@H](C)C=C1N(C2)C(=O)N(CCO)C12CCN(Cc1cc(C)cc(C)c1)CC2 (single isomer, unassigned) [ER-819787] | 170 nM
21 | CCN1C(=O)N2Cc3cc(OC)cc(OC)c3[C@@H](C)C=C2C12CCN(Cc1ccc3occc3c1)CC2 [ER-811304-01] | 100 nM

Row | Compound | IC50
22 | CCN1C(=O)N2Cc3cc(OC)cc(OC)c3[C@@H](C)C=C2C12CCN(Cc1nccc(-c3ccccc3)n1)CC2 [ER-819985-01] | 130 nM
23 | CCN1C(=O)N2Cc3cc(OC)cc(OC)c3[C@H](C)C=C2C12CCN(Cc1cc(C)ccc1F)CC2 [ER-819947] | 2600 nM
24 | CCN1C(=O)N2Cc3cc(OC)cc(OC)c3[C@@H](C)C=C2C12CCN(Cc1cc(OC)c(F)c(OC)c1)CC2 [ER-824214-00] | 29 nM
25 | CCN1C(=O)N2Cc3cc(OC)cc(OC)c3[C@@H](C)C=C2C12CCN(Cc1cccc3cccnc13)CC2 [ER-819955-01] | 20 nM
26 | CCN1C(=O)N2Cc3cc(OC)cc(OC)c3[C@@H](C)C=C2C12CCN(Cc1c3ccccc3nn1C)CC2 [ER-811312-01] | 77 nM
27 | COc1cc2c(c(OC)c1)[C@@H](C)C=C1N(C2)C(=O)N(C[C@@H](O)CO)C12CCN(Cc1cc(C)cc(C)c1)CC2 (single isomer, unassigned) [ER-819788] | 30 nM
28 | CCN1C(=O)N2Cc3cc(OC)cc(OC)c3[C@@H](C)C=C2C12CCN(Cc1cnc3ccccc3n1)CC2 [ER-811297-01] | 74 nM
29 | C=C(C)CN1C(=O)N2Cc3cc(OC)cc(OC)c3[C@@H](C)C=C2C12CCN(Cc1cc(C)cc(C)c1)CC2 (single isomer, unassigned) [ER-820006] | 60 nM
30 | CCN1C(=O)N2Cc3cc(OC)cc(OC)c3[C@@H](C)C=C2C12CCN(Cc1c[nH]c3ccccc13)CC2 [ER-819783-01] | 35 nM
31 | CCN1C(=O)N2Cc3cc(OC)cc(OC)c3[C@@H](C)C=C2C12CCN(Cc1cccn1-c1ccccc1C(F)(F)F)CC2 [ER-819849-01] | 220 nM
32 | CCN1C(=O)N2Cc3cc(OC)cc(OC)c3[C@@H](C)C=C2C12CCN(Cc1cccc3c1OCC3)CC2 [ER-811306-01] | 100 nM
33 | CCN1C(=O)N2Cc3cc(OC)cc(OC)c3[C@@H](C)C=C2C12CCN(Cc1cccc(-n3cccn3)c1)CC2 [ER-811317-01] | 74 nM
34 | CCN1C(=O)N2Cc3cc(OC)cc(OC)c3[C@@H](C)C=C2C12CCN(Cc1c(C)nc3sccn13)CC2 [ER-811352-02] | 13 nM
35 | CCN1C(=O)N2Cc3cc(OC)cc(OC)c3[C@@H](C)C=C2C12CCN(Cc1cc(C)c(F)c(C)c1)CC2 [ER-819931] | 70 nM
36 | CCN1C(=O)N2Cc3cc(OC)cc(OC)c3[C@@H](C)C=C2C12CCN(Cc1cccc3c1ccn3C)CC2 [ER-811349-01] | 43 nM
37 | CCN1C(=O)N2Cc3cc(OC)cc(OC)c3[C@@H](C)C=C2C12CCN(Cc1cccc3[nH]ccc13)CC2 [ER-811300-01] | 35 nM
38 | CCN1C(=O)N2Cc3cc(OC)cc(OC)c3[C@@H](C)C=C2C12CCN(Cc1cccn1C(C)(C)C)CC2 [ER-811359-01] | 270 nM
39 | CCN1C(=O)N2Cc3cc(OC)cc(OC)c3[C@@H](C)C=C2C12CCN(Cc1cccnc1C)CC2 [ER-819832-01] | 57 nM
40 | CCN1C(=O)N2Cc3cc(OC)cc(OC)c3[C@@H](C)C=C2C12CCN(Cc1cccn1-c1cccnc1)CC2 [ER-819979-01] | 120 nM
41 | CCN1C(=O)N2Cc3cc(OC)cc(OC)c3[C@@H](C)C=C2C12CCN(Cc1cccn1-c1cnccn1)CC2 [ER-820020-02] | 180 nM
42 | CCN1C(=O)N2Cc3cc(OC)cc(OC)c3[C@@H](C)C=C2C12CCN(Cc1c(-c3ccc(F)cc3)nc3ncccn13)CC2 [ER-811346-02] | 200 nM

Row | Compound | IC50
43 | CCN1C(=O)N2Cc3cc(OC)cc(OC)c3[C@@H](C)C=C2C12CCN(Cc1cnc[nH]1)CC2 [ER-819780-01] | 200 nM
44 | CCN1C(=O)N2Cc3cc(OC)cc(OC)c3[C@@H](C)C=C2C12CCN(Cc1ccc3nn[nH]c3c1)CC2 [ER-819820-01] | 90 nM
45 | CCN1C(=O)N2Cc3cc(OC)cc(OC)c3[C@@H](C)C=C2C12CCN(Cc1ccc(F)c(OC(F)(F)F)c1)CC2 [ER-819933] | 1150 nM
46 | CCN1C(=O)N2Cc3cc(OC)cc(OC)c3[C@H](C)C=C2C12CCN(Cc1cccn1C)CC2 [ER-819925] | 320 nM
47 | CCN1C(=O)N2Cc3cc(OC)cc(OC)c3[C@@H](C)C=C2C12CCN(Cc1nc(OC)cc(OC)n1)CC2 [ER-820004-01] | 67 nM
48 | CCN1C(=O)N2Cc3cc(OC)cc(OC)c3[C@@H](C)C=C2C12CCN(Cc1cn(C(C)=O)c3ccccc13)CC2 [ER-819808-01] | 140 nM
49 | CCN1C(=O)N2Cc3cc(OC)cc(OC)c3[C@H](C)C=C2C12CCN(Cc1nc3ccccc3n1C)CC2 [ER-819927] | 210 nM
50 | CCN1C(=O)N2Cc3cc(OC)cc(OC)c3[C@@H](C)C=C2C12CCN(Cc1nccn1C)CC2 [ER-811278-01] | 37 nM
51 | CCN1C(=O)N2Cc3cc(OC)cc(OC)c3[C@@H](C)C=C2C12CCN(Cc1cccc3nsnc13)CC2 [ER-811332-01] | 67 nM
52 | CCN1C(=O)N2Cc3cc(OC)cc(OC)c3[C@@H](C)C=C2C12CCN(Cc1cccn1C)CC2 [ER-819924] | 50 nM
53 | COc1cc2c(c(OC)c1)[C@H](C)C=C1N(C2)C(=O)N(C[C@@H](O)CO)C12CCN(Cc1cc(C)cc(C)c1)CC2 (single isomer, unassigned) [ER-819789] | 170 nM
54 | CCN1C(=O)N2Cc3cc(OC)cc(OC)c3[C@@H](C)C=C2C12CCN(Cc1ccc(/C=C/c3ccccc3)cc1)CC2 [ER-819814-01] | 300 nM
55 | CCN1C(=O)N2Cc3cc(O)cc(O)c3[C@@H](C)C=C2C12CCN(Cc1cc(C)cc(C)c1)CC2 [ER-819888-00] | 300 nM
56 | CCN1C(=O)N2Cc3cc(OC)cc(OC)c3[C@@H](C)C=C2C12CCN(Cc1ccc3[nH]ccc3c1)CC2 [ER-819966-01] | 48 nM
57 | CCN1C(=O)N2Cc3cc(OC)cc(OC)c3[C@H](C)C=C2C12CCN(Cc1ccc(F)c(OC)c1)CC2 [ER-819948] | > 10000 nM
58 | CCN1C(=O)N2Cc3cc(OC)cc(OC)c3[C@@H](C)C=C2C12CCN(Cc1ccc(F)c(OC)c1)CC2 [ER-819936] | 120 nM
59 | CCN1C(=O)N2Cc3cc(OC)cc(OC)c3[C@@H](C)C=C2C12CCN(Cc1cccn1-c1cc(C)on1)CC2 [ER-820017-01] | 69 nM
60 | CCN1C(=O)N2Cc3cc(OC)cc(OC)c3[C@@H](C)C=C2C12CCN(Cc1nccn1OCc1ccccc1)CC2 [ER-820009-00] | 110 nM
61 | CCN1C(=O)N2Cc3cc(OC)cc(OC)c3[C@@H](C)C=C2C12CCN(Cc1nc3ccccc3o1)CC2 [ER-819981-01] | 200 nM

Same assay, conditions: Table 4, engineered HEK cells, compound 24 hours, normalized to reference ER-819544

Row | Compound | IC50
62 | CCN1C(=O)N2Cc3cc(OC)cc(OC)c3[C@@H](C)C=C2C12CCN(Cc1nccn1C)CC2 [ER-819957-01] | 55 nM
